According to article PMC9318133 (International Journal of Molecular Sciences, 2022):
Where two headings read alike, the source gives them in different places.

What was measured:
[1] = system: CD-1 mice; design: method as in PMID 25769232, PMID 25987201; details: ED50 + SEM, data elaborated from ref [33],[34]; cited from earlier work
[2] = biological target: T1, human CB2 receptors (Homo sapiens, UniProt P34972); design: method as in PMID 27527584, PMID 25769232; details: read-out: hCB2 CHO Membranes Ki; [3H]-CP-55,940 competition binding; mean ± SEM; data elaborated from ref [15],[33]; cited from earlier work
T1 construct: host or cells: CHO cells
T1 sequence (P34972 whole entry): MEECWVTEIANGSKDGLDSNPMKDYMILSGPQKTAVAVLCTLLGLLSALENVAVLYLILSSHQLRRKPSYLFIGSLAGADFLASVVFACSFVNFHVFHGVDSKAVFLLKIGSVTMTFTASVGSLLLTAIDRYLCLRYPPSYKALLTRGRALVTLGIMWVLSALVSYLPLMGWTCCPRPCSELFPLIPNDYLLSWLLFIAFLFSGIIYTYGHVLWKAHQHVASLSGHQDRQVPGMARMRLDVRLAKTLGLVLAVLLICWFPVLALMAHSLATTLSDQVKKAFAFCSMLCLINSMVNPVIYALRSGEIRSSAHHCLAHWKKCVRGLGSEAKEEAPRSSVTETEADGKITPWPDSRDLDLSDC

[3] = system: CD-1 mice; experiment: Visual object response test; assay type: in vivo, mouse
[4] = system: CD-1 mice; experiment: Tail pinch test (acute mechanical nociception); assay type: in vivo, mouse
Method: The motor responses of the animal to different visual and acoustic stimuli were evaluated according to the procedure described in our previous studies. To reduce the number of animals used, mice were evaluated in functional observational tests carried out in a consecutive manner according to the following time scheme: Observation of visual object and acoustic responses and breath rate were measured at 0, 10, 30, 60, 120, 180, 240, and 300 min after injections. Visual placing response was measured at 0, 15, 35, 70, 125, 185, 245, and 305 min after injection. Core temperature was measured at 25, 45, 85, 140, 200, 260, and 320 min after injection. The tail pinch test was measured at 35, 55, 90, 145, 205, 265, and 325 min after injection, and the valuation of number of steps in the drag test was measured at 45, 75, 105, 160, 220, 280, and 340 min after injection.
The tail pinch test is used for evaluating acute mechanical nociception. A special rigid probe connected to a digital dynamometer (ZP-50N, 441-8077, Toyohashi, Aichi, Japan) was gently placed on the tail (in the distal portion), and progressive pressure was applied. When the […] flicked its tail, the pressure was stopped, and the digital instrument saved the maximum peak of weight supported (g/force). A cut-off (500 g/force) was set to avoid tissue damage. The test was repeated three times, and the final value was calculated with the average of three obtained scores.
Data are expressed in arbitrary units (visual objects and acoustic responses) and percentage of baseline (visual placing response, breath rate, and drag test). Core temperature values were expressed as the difference between control temperature (before injection) and temperature following drug administration (Δ °C). Antinociception (tail pinch tests) was calculated as percentage of maximal possible effect:EMax% = [(test − control latency)/(cut off time − control)] × 100
All data are shown as mean ± SEM of 8 independent experimental replications. […] ED50 (dose of agonist to obtain 50% of the overall mean effect) values were calculated by non-linear regression analysis of dose–response data performed using Prism software (GraphPad Prism, San Diego, CA, USA). The calculation of JWH-018 ED50 values was based on the results of previous studies. Curves have been compared, when possible, performing the F test (curve comparison). All statistical analysis was performed using the program Prism 8.0 software (GraphPad Prism, San Diego, CA, USA).

[5] = biological target: T2, human CB1 receptors (Homo sapiens, UniProt P21554); experiment: Cyclic AMP assay (forskolin-stimulated) in CHO cells transfected with human CB1 receptors; assay type: cell-based
T2 construct: host or cells: CHO cells
T2 sequence (P21554 whole entry): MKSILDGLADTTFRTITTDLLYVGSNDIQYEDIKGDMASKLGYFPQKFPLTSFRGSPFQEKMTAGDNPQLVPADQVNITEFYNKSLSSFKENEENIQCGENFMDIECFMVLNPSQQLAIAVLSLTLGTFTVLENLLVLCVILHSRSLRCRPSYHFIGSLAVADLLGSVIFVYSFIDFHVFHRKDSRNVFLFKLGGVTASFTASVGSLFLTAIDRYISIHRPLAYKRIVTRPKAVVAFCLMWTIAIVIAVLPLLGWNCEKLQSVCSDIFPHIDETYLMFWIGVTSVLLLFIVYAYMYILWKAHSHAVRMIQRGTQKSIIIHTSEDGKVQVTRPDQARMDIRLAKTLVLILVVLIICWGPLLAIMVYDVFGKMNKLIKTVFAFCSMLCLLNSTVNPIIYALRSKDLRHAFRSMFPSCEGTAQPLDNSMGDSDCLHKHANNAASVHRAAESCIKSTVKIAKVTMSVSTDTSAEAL
Method: Chinese hamster ovarian (CHO) cells transfected with human CB1 or CB2 receptors (Perkin Elmer Life and Analytical Sciences, Melville, NY, USA) were grown adherently and maintained in Ham’s F12 containing 10% fetal bovine serum, penicillin (100 U/mL), streptomycin (100 µg/mL), and Geneticin (G418, 0.4 mg/mL) at 37 °C in 5% CO2/95% air. To obtain membranes, cells were washed with phosphate-buffered saline (PBS) and scraped off with ice-cold hypotonic buffer (5 mM Tris HCl, 2 mM EDTA, pH 7.4). The cell suspension was homogenized with a Polytron and then centrifuged for 30 min at 40,000× g. […]
(§1) The protein concentration was determined according to a Bio-Rad method with bovine serum albumin as a reference standard. Inhibitory binding constants, Ki, were calculated from the IC50 values according to the Cheng and Prusoff equation:Ki = IC50/(1 + [C*]/KD*) where [C*] is the concentration of the radioligand and KD* its dissociation constant. Functional experiments were analyzed by non-linear regression analysis using the equation for a sigmoid concentration–response curve (GraphPad Prism, San Diego, CA, USA). All the data are expressed as the mean ± SEM of three independent experiments.

[6] = biological target: T1, human CB2 receptors; experiment: [3H]-CP-55,940 competition binding, CHO cell membranes transfected with human CB2 receptors
Method: To obtain membranes, cells were washed with phosphate-buffered saline (PBS) and scraped off with ice-cold hypotonic buffer (5 mM Tris HCl, 2 mM EDTA, pH 7.4). The cell suspension was homogenized with a Polytron and then centrifuged for 30 min at 40,000× g. The membrane pellet was suspended in 50 mM Tris HCl buffer (pH 7.4) containing 2.5 mM ethylenediaminetetraacetic acid (EDTA), 5 mM MgCl2, and 0.5 mg/mL bovine serum albumin (BSA) for CB1 receptors or in 50 mM Tris HCl (pH 7.4), 1 mM EDTA, 5 mM MgCl2, and 0.5% BSA for CB2 receptors.
For human cannabinoid receptors, membranes obtained from CHO cells transfected with human CB1 or CB2 receptors (2 µg protein/100 µL) were used. […] Bound and free radioactivity were separated by filtering the assay mixture through Whatman GF/C glass fiber filters using a Brandel cell harvester (Brandel Instruments, Unterföhring, Germany).
as §1, with “All the data are expressed as the mean ± SEM of three independent experiments.” left out

[7] = 0.01–30 mg/kg i.p., monitored over 5 h

Row | Structure (SMILES) | ED50 Visual Object [1] [mg/kg] | Ki [2] [nM] | effect on visual object response [3, 7] | ED50 ([3]; Mus musculus, ip, mice, ED50 + SEM, non-linear regression) [mg/kg] | effect on threshold to acute mechanical pain stimulus (tail pinch) [4, 7] | ED50 ([4]; Mus musculus, ip, mice, ED50 + SEM) [mg/kg] | lowest dose from which increased pain threshold to acute mechanical stimulus was observed ([4]; i.p.) [mg/kg] | time of maximum analgesic effect (tail pinch) ([4]; maximum dose of 30 mg/kg i.p.) [min] | IC50 [5] [nM] | Ki [6] [nM]
1 | CCCCCn1cc(C(=O)c2cccc3ccccc23)c2ccccc21 [JWH-018, 1-naphthalenyl(1-pentyl-1H-indol-3-yl)-methanone] | 0.32 ± 0.06 | 8.63 ± 0.69 | – | – | – | – | – | – | – | –
2 | CCCCCn1cc(Cc2cccc3ccccc23)c2ccccc21 [JWH-175, 3-(1-naphthalenylmethyl)-1-pentyl-1H-indole] | – | – | dose-dependently reduced the visual object response | 9.6 ± 0.02 | dose-dependently increased the threshold to acute mechanical pain stimulus | 4 ± 0.12 | 0.1 | 265 | 72 ± 5 | 363 ± 31
